Assay results taken from patent US20120277296A1, “Selective CB2 Receptor Agonists for Use in the Prevention or Treatment of Alcoholic Liver Disease” (priority 2009, published 2012).
“Also recorded” adds a separate entry of the source.

Columns and labels:
[1] = system: TNF-α mRNA expression; experiment: Chronic ethanol feeding model: hepatic inflammation, TNF-α mRNA expression by RT-PCR; assay type: in vivo, mouse; details: WT mice fed EtOH, JWH-133 3 mg/kg daily intraperitoneal during 10 day ethanol feeding, vs. vehicle
Protocol: Animals. Female mice (8-10 week old) were used for the experiments and included wild type (WT) C57B1/6J mice (Janvier, France) and mice with a targeted mutation of the Cnr2 gene (Buckley et al. 2000). Homozygous Cnr2−/− animals were obtained from heterozygous Cnr2+/− mice that were backcrossed with WT C57Bl/6J animals over 10 generations, and further intercrossed to obtain homozygous animals. Genotyping was performed on tail genomic DNA using QuantiTect™ SYBR® Green PCR kit (Qiagen). Animals were housed in temperature and humidity controlled rooms, kept on a 12-h light/dark cycle and provided unrestricted amounts of food and water. […]
(§1) Chronic exposure to ethanol. […] Body weight and food intake were measured daily.
(§2) The impact of the CB2 agonist JWH-133 or its vehicle was evaluated in WT mice that were treated with a daily intraperitoneal injection of JWH-133 (3 mg/kg) or its vehicle during the 10 day feeding with ethanol. […] Body weight and food intake were measured daily. […]
RNA preparation and RT-PCR. […] Quantitative real time-PCR was carried out on a Light Cycler (Roche Diagnostics), as previously described (Julien et al. 2005). Oligonucleotide primers (MWG Biotech) for the following mouse genes were used: mouse Rn18S; mouse Tnf, PCR amplified products were analyzed on a 2% agarose gel and sequenced.

[2] = system: WT mice fed EtOH (EtOH-induced hepatic steatosis); experiment: Chronic ethanol feeding model (modified Lieber-De Carli diet, 10 days): hepatic steatosis; assay type: in vivo, mouse; details: JWH-133 3 mg/kg daily intraperitoneal during 10 day ethanol feeding, vs. vehicle
Protocol: Animals. Female mice (8-10 week old) were used for the experiments and included wild type (WT) C57B1/6J mice (Janvier, France) and mice with a targeted mutation of the Cnr2 gene (Buckley et al. 2000). Homozygous Cnr2−/− animals were obtained from heterozygous Cnr2+/− mice that were backcrossed with WT C57Bl/6J animals over 10 generations, and further intercrossed to obtain homozygous animals. Genotyping was performed on tail genomic DNA using QuantiTect™ SYBR® Green PCR kit (Qiagen). Animals were housed in temperature and humidity controlled rooms, kept on a 12-h light/dark cycle and provided unrestricted amounts of food and water. Animal procedures were conducted in accordance with French government policies (Services Vétérinaires de la Santé et de la Production Animale, Ministère de l'Agriculture).
as §1, §2
Hepatic triglyceride quantification. […] Triglycerides were quantified with a triglyceride determination kit (Sigma), on liver samples from 10-15 animals per group.

`CCCC(C)(C)c1ccc2c(c1)OC(C)(C)[C@@H]1CC=C(C)C[C@@H]21` [JWH-133, (6aR,10aR)-3-(1,1-dimethylbutyl)-6a,7,10,10a-tetrahydro-6,6,9-trimethyl-6Hdibenzo[b,d]pyran] was tested, and the “TNF-α mRNA expression in liver” value [1] was “prevents the increase; also recorded: reduced TNF-α mRNA levels to control levels”, the hepatic triglyceride content [2] was “decrease; also recorded: strongly reduced” and the liver/body weight ratio [2] was “decrease; also recorded: strongly reduced”.
